# Source: patent US12642790B2, “Drug combination for treating obesity” (The Curators of the University of Missouri, priority 2022, dated 2026)
# Tests used:
# [1] = test system: white adipose tissue; settings: obese human individuals; cited from earlier work
# [2] = administration of mirabegron; cited from earlier work
# [3] = test system: UCP1; test: ucp1 mRNA induction in primary adipocytes by qRT-PCR; assay type: cell-based; settings: primary adipocytes from male C57BL6J mice; 1 uM CL with 1 uM PHTPP or 10 nM DPN; 24 hours; compared to CL alone; FIG. 4
# Method: To test the hypothesis in vitro, that inhibition of genomic activity of ERβ would enhance the effectiveness of the […], CL316,243 (CL) to induce expression of the mitochondrial UCP1, primary adipocytes were treated with the following: (a) CL, (b) diarylpropionitrile (DPN) (i.e., ligand known to promote classical genomic functions of ERβ), (c) 4-(2-phenyl-5,7-bis(trifluoromethyl)pyrazolo[1,5-a]pyrimidin-3-yl)phenol (PHTPP) (i.e., ligand known to suppress classical genomic functions of ERβ), (d) CL+DPN, and (e) CL+PHTPP. Briefly, perigonadal and subcutaneous WAT was harvested from male C57BL6J mice, digested in collagenase to isolate stromal vascular cells then cultured in Dulbecco's modified eagle medium/nutrient mixture F12 media supplemented with 10% fetal bovine serum, 1% GlutaMax, 0.1% gentamicin and 0.05% insulin at 37° C. and 5% CO2. Adipocyte differentiation was induced by supplementing media with 0.5 mM 3-isobutyl-1-methylxanithin, 1 uM dexamethasone, and […] for 48 hours. 14 days post induction, primary adipocytes were treated with either 1 uM CL, 10 nM DPN, 1 uM PHTPP or a combination of ligands as outlined above. After 24 hours treatment, ucp1 mRNA induction was measured using qRT-PCR. […] Ucp1 mRNA expression is expressed as 2^ΔCT where ΔCT=housekeeping CT−Ucp1 CT and presented as fold difference relative to control (CTRL). […]
# [4] = test system: ERβ; test: Western blot of ERβ protein in inguinal subcutaneous adipose tissue of diet-induced obese WT and ERβDBDKO mice; assay type: in vivo; settings: daily injections of CL for two weeks; ERβDBDKO vs WT diet-induced obese mice; GxT p<0.001; FIG. 1B
# Excerpt: (§1) Inguinal subcutaneous adipose tissue was harvested from diet-induced obese male and female wild-type (WT) and estrogen receptor beta (ERβ) DNA-binding domain (DBD) knock-out (ERβDBDKO) mice that were given daily injections of CL316,243 (CL), a beta3 adrenergic receptor (B3AR) ligand, for two weeks. ERβDBDKO mice express a mutated form of ERβ that lacks genomic activity by genetic ablation of the DBD, however still retain non-classical (i.e., non-genomic) signaling through ERβ. Protein was then isolated from the adipose tissue using Thermo Scientific™ RIPA lysis and extraction buffer, quantified using BCA method, then 10 ug was separated on a 4-20% SDS-PAGE gel followed by transfer to polyvinylidene difluoride membranes using BioRad Trans-Turbo Blot system. […] Images were captured on a ChemiDoc Imaging System (BioRad, Hercules, CA), band intensity was quantified using ImageLab software (BioRad), then ERβ and UCP1 protein expression was quantified relative to beta actin.
# (§2) FIG. 1A is a Western blot showing the levels of ERβ and UPC1 in WT and ERβDBDKO (“KO”) mice, in the presence and absence of CL316243 (“CL”). The blot in FIG. 1A was scanned to quantify the band intensity, and the data used to graph the relative protein fold change for ERβ (FIG. 1B) and UCP-1 (FIG. 1C).
# [5] = test system: UCP1; test: Western blot of UCP1 protein in inguinal subcutaneous adipose tissue of diet-induced obese WT and ERβDBDKO mice; assay type: in vivo; settings: daily injections of CL for two weeks; ERβDBDKO vs WT diet-induced obese mice; GxT p=0.017; FIG. 1C
# Excerpt: as §1, §2
structure (smiles),measurement,setting,value
Nc1nc(CC(=O)Nc2ccc(CCNC[C@H](O)c3ccccc3)cc2)cs1 [mirabegron],white adipose tissue dysfunction,[1],reduced white adipose tissue dysfunction
same,side effects,[2],"may result in hypertension, nasopharyngitis, tachycardia, headaches, urinary tract infections, upper respiratory tract infections, constipation, abdominal pain, and fatigue"
"Oc1ccc(-c2c(-c3ccccc3)nn3c(C(F)(F)F)cc(C(F)(F)F)nc23)cc1 [PHTPP, 4-(2-phenyl-5,7-bis(trifluoromethyl)pyrazolo[1,5-a]pyrimidin-3-yl)phenol]","Ucp1 mRNA expression, fold difference relative to control",[3],increases the CL-mediated induction of UCP1
C[C@H](Cc1ccc2c(c1)OC(C(=O)[O-])(C(=O)[O-])O2)NC[C@H](O)c1cccc(Cl)c1.[Na+].[Na+] [CL],ERβ protein content in WAT (relative to beta actin),[4],increases ERβ protein content in WAT to a greater level in ERβDBDKO mice compared to WT
same,UCP1 protein content (relative to beta actin),[5],increases UCP1 protein content in ERβDBDKO mice more so than in WT mice
